“Also recorded” adds a separate entry of the source.
Experiments:
[1] = test system: HCT116 cells; assay: 3D hyaluronan-based hydrogel construct drug screen, MTS assay; conditions: Homo sapiens, HCT-116, 3D, 100 μM, HCT116, drug day 5, assay day 7; read-out: percent relative cell viability (MTS, relative to control)
Description: Polydimethylsiloxane, or PDMS, was used to coat the bottom of the wells. Cells were embedded within the hyaluronan-based hydrogel and were given 5 days to acclimate to their three-dimensional environment and on day 5 were administered different anticancer drug solutions (FIG. 7, panel A). […], Dabrafenib had greater efficacy in targeting the HCT116 and SW480 cell lines, which had relative cellular viability values of 38% and 43%, as opposed to the HT29 and CACO2 cell lines, which had higher cell viability values of 93% and 75%. […]
(§1) Well Coating with PDMS and Cell Isolation: Polydimethylsiloxane, or PDMS, (DOW Corning, North Carolina, USA) was used at a 1:10 curing agent ratio to coat the bottom of the 96-well plates and the plates were then placed in a 80° C. oven for at least one hour. Cells were passaged in the same methods previously mentioned (A) with the desire to place 10 μL 3D hyaluronan-based hydrogel constructs containing 100,000 cells each ([…]) into the wells of a 96-wells plate for all four colorectal cancer cell types. Depending on the cell count, a desired number of cells were isolated in new 15 mL centrifuge tubes as cell-media solution and underwent centrifugation.
(§2) Hydrogel Components of the Single-Cell Type Constructs: The hyaluronic acid-based hydrogel (ESI BIO, California, USA) was produced using a mixture of three components: Heprasil, Gelin-S, and Extralink PEGDA 2-ARM Acrylate crosslinker. These components were mixed in a 2:2:1 ratio by volume. 0.1% Irgacure photoinitiator (Sigma-Aldrich, Missouri, USA) was added to each of the three components prior to their mixture and the three components were placed in a 37° C. incubator for a ˜30 minutes to solubilize.
(§3) Forming Organoid Constructs: Once solubilized, the media was aspirated from the 15 mL centrifuge tube (post-centrifugation) and the cells were isolated as a pellet. The hydrogel components were added directly into the centrifuge tube containing the cells and the cells were carefully resuspended in the mixture. 10 μL of the gel-cell solution was placed in the center of the wells on the PDMS coating. This was continued for all wells containing cells and was repeated for each cell type. After this point, the gel can be exposed to UV light from a BlueWave 200 spot light (Dymax, Connecticut, USA) to solidify the hydrogel, or one can wait ˜30 minutes for the gel to form on its own. DMEM-10 media was then placed in the wells and the constructs were incubated for 5 days.
(§4) Anticancer Drug Screening and Cell Viability: The same five anticancer drugs were added on Day 5 and the cell viability assay occurred on Day 7.

[2] = test system: HCT116 cells; assay: cells; assay type: cell-based; conditions: Homo sapiens, HCT-116, read-out: relative cellular viability (MTS, relative to control)
Description: (§5) Cancer cells seeded directly into wells were given 4-5 hours to reattach to the bottom of the wells. After that time, the anticancer drug solutions were administered in place of the media (FIG. 6, panel A) and an MTS assay was carried out 2 days later to determine cell viability. […] At 100 μM concentrations of Regorafenib and Sorafenib, and 100 mM concentrations of 5-FU, cellular viability remained below 20% that of the control for all four of the colorectal cancer cell lines utilized. However, screening with Dabrafenib and Trametinib produced diverging results from the other three anticancer drugs at higher concentrations. […] When treated with 1 mM concentrations of 5-FU, relative cellular viability was approximately 39% for SW480 cells and remained between 10%-22% for the HCT116, HT29, and CACO2 cells. These values were considerably lower than the relative cellular viability values for the lowest concentrations of the other anticancer drugs.
(§6) Cell Seeding: The original 15 mL centrifuge tubes containing the 10 mL of DMEM-10, cells, and trypsin were placed into a centrifuge. The centrifugation setting was 1500 RPM and at maximal acceleration for 5 minutes. After that time, the media and trypsin mixture was aspirated from the tubes, leaving the cell pellets still intact. 5 mL of DMEM-10 was then pipetted into each of the tubes, resuspending the cells in the process. Calculated volumes of the 5 mL cell-media solution were determined to ensure that 25,000 cells of each of the four colorectal cancer cell lines were seeded directly into each of the wells of a polystyrene clear-bottom 96-well plate. 100 μL of DMEM-10 media was then pipetted directly into the wells. The 96-well plates were incubated at 37° C. and 5% CO2 for 5 hours to allow the cells to reattach themselves to the bottom of the wells until media was aspirated and anticancer drug solutions were added.
(§7) Addition of Anticancer Drugs for Screening: The anticolorectal cancer drugs used in this screening included 5-FU, Regorafenib, Sorafenib, Trametinib, and Dabrafenib (Sigma-Aldrich, Missouri, USA)). High concentration drug stock solutions were created with DMSO. Lower concentration drug solutions were created by mixing the anticancer drug stocks with DMEM-10 media. […] drug solutions were generated for 5-FU; 1 μM, 10 μM, and 100 μM drug solutions were generated for Regorafenib, Sorafenib, and Dabrafenib; and 1 nM, 10 nM, and 100 nM drug solutions were generated for Trametinib. Media was carefully aspirated from the wells and 200 μL of the various drug-media solutions were placed into the wells containing cells. Three duplicates were generated for each anticancer drug concentration with each of the different cell types to calculate averages and run statistics on the data generated. Well plates were then incubated at 37° C. and 5% CO2 for […].
(§8) Cell viability assay: Cell viability was determined 48 hours after exposure to the anticancer drug solutions. The viability of the cells was examined by the CellTiter 96® AQueous One Solution Cell Proliferation (MTS) assay (Promega, Wisconsin, USA). The anticancer drug-media solutions were aspirated from the wells and 200 μL of the MTS reagent was carefully pipetted into the wells. The incubation time for the cells with the MTS reagent was approximately 45 minutes. The cell viability assay was performed on another 96-well plate and the absorbance was quantified by the EnVision Multilabel Plate Reader (PerkinElmer, California, USA).

[3] = test system: SW480 cells; assay: 2D drug screen, MTS assay; assay type: cell-based; conditions: Homo sapiens, read-out: relative cellular viability (MTS, relative to control)
Description: as §5, §6, §7, §8

[4] = test system: CACO2 cells; assay: 3D hyaluronan-based hydrogel construct drug screen, MTS assay; conditions: Homo sapiens, Caco-2, 3D, 100 μM, CACO2, drug day 5, assay day 7; read-out: percent relative cell viability (MTS, relative to control)
Description: (§9) Polydimethylsiloxane, or PDMS, was used to coat the bottom of the wells. Cells were embedded within the hyaluronan-based hydrogel and were given 5 days to acclimate to their three-dimensional environment and on day 5 were administered different anticancer drug solutions (FIG. 7, panel A). […] At 100 μM concentrations of Regorafenib and Sorafenib, cellular viability remained below 25% that of the control for all four of the colorectal cancer cell lines utilized. The only exception to this was when 100 μM Regorafenib was administered to CACO2 cells and the percent relative cell viability rose to approximately 48%. […] At a 100 μM concentration, Dabrafenib had greater efficacy in targeting the HCT116 and SW480 cell lines, which had relative cellular viability values of 38% and 43%, as opposed to the HT29 and CACO2 cell lines, which had higher cell viability values of 93% and 75%. 100 μM concentrations of Trametinib produced relative cellular viability results that fell within a narrow range for the four colorectal cell lines with values of 54% for SW480 cells and 74% for HT29 cells.
as §1, §2
Forming Organoid Constructs: Once solubilized, the media was aspirated from the 15 mL centrifuge tube (post-centrifugation) and the cells were isolated as a pellet. The hydrogel components were added directly into the centrifuge tube containing the cells and the cells were carefully resuspended in the mixture. 10 μL of the gel-cell solution was placed in the center of the wells on the PDMS coating. This was continued for all wells containing cells and was repeated for each cell type. […]

[5] = test system: SW480 cells; assay: as above; assay type: cell-based; conditions: for viability at 100 µM: Homo sapiens, SW480, drug day 5, assay day 7, read-out: percent relative cell viability (MTS, relative to control)
Description: as §9, §1, §2, §3, §4

[6] = test system: HT29 cells; assay: as above; assay type: cell-based; conditions: for viability at 100 µM: Homo sapiens, HT-29, 100 μM, HT29, drug day 5, assay day 7, read-out: percent relative cell viability (MTS, relative to control)
Description: as §9, §1, §2, §3, §4

[7] = test system: CACO2 cells; assay: cells; assay type: cell-based; conditions: Homo sapiens, Caco-2, read-out: relative cellular viability (MTS, relative to control)
Description: as §5, §6, §7, §8

[8] = test system: HT29 cells; assay: cells; assay type: cell-based; conditions: Homo sapiens, HT-29, read-out: relative cellular viability (MTS, relative to control)
Description: as §5, §6, §7, §8

[9] = test system: liver, cardiac, lung, testis, and brain organoids; assay: 5 organoid integrated drug screening (standard size platform), live/dead staining; assay type: cell-based; conditions: 20 uM
Description: (§10) Design and Results of Experiments: Five tissue platforms were initiated containing liver, cardiac, lung, testis, and brain organoids and maintained for 7 days prior to the start of the drug study. At this point, the liver modules were removed from half of the platforms. Capecitabine (20 uM) was administered to all platforms after which viability was assessed through live/dead staining or cardiac beating behavior after 7 days of exposure (day 14 of total study).

[10] = test system: liver, cardiac, lung, testis, and brain organoids; assay: 5 organoid integrated drug screening in a miniaturized microfluidic platform, live/dead staining; assay type: cell-based; conditions: miniaturized system, 20 uM
Description: as §10, with “Experiments: Adhesive film-based microfluidic platforms were fabricated as described below. As with the full-scale platform described in Example 4, five” for “Experiments: Five”, “tissue constructs” for “tissue platforms”
FIG. 14 provides an overview of this fabrication methodology.

[11] = 7 days of exposure, with liver present
[12] = 7 days of exposure, without liver

Work on `CC(C)(C)c1nc(-c2cccc(NS(=O)(=O)c3c(F)cccc3F)c2F)c(-c2ccnc(N)n2)s1` [Dabrafenib] yielded a viability at 100 µM [1] of 38%, a viability at 100 µM [2] of roughly 36% and a viability at 100 µM [3] of roughly 93%. The viability at 100 µM [4] was 75%, the viability at 100 µM [5] was 43% and the viability at 100 µM [6] was 93%.

`CNC(=O)c1cc(Oc2ccc(NC(=O)Nc3ccc(Cl)c(C(F)(F)F)c3)cc2)ccn1` [Sorafenib] showed a viability at 100 µM [1] of less than 25%, a viability at 100 µM [2] of less than 20% and a viability at 100 µM [7] of less than 20%. The viability at 100 µM [8] was less than 20%, the viability at 100 µM [3] was less than 20% and the viability at 100 µM [4] was less than 25%. It also gave a viability at 100 µM [5] of less than 25% and a viability at 100 µM [6] of less than 25%.

For `CC(=O)Nc1cccc(-n2c(=O)n(C3CC3)c(=O)c3c(Nc4ccc(I)cc4F)n(C)c(=O)c(C)c32)c1` [Trametinib], the viability at 0.1 µM [7] was roughly 39%, the viability at 0.1 µM ([3]; 100 nM) was roughly 58% and the “percent relative cell viability (MTS, relative to control)” value ([5]; 100 μM concentrations of Trametinib, SW480) was 54%. For the same compound, the “percent relative cell viability (MTS, relative to control)” value ([6]; 100 μM concentrations of Trametinib, HT29) was 74%.

For `CCCCCOC(=O)Nc1nc(=O)n([C@@H]2O[C@H](C)[C@@H](O)[C@H]2O)cc1F` [capecitabine], the “brain organoid viability (LIVE/DEAD)” value ([9]; 7 days of exposure, with and without liver) was “brain organoids suffered in both groups”, the “cardiac and lung organoid toxicity (LIVE/DEAD)” value [9, 11] was “heart and lung toxicity; also recorded: increased cell death in cardiac and lung organoids” and the “cardiac and lung organoid viability (LIVE/DEAD)” value [9, 12] was “cardiac and lung organoid viability does not decrease”. The “metabolism by liver organoids” value ([9]; with liver present) was “metabolized into the toxic drug 5-FU”, the “brain organoid viability (LIVE/DEAD)” value ([10]; 7 days of exposure) was “brain organoid viability is high” and the “cardiac and lung organoid toxicity (LIVE/DEAD)” value [10, 11] was “heart and lung toxicity”. The “cardiac and lung organoid viability (LIVE/DEAD)” value [10, 12] was “cardiac and lung organoid viability does not decrease” and the “metabolism by liver organoids” value ([10]; with liver present) was “metabolized into the toxic drug 5-FU”.

Source: US20190187129A1, “CANCER MODELING PLATFORMS AND METHODS OF USING THE SAME” (Wake Forest University Health Sciences, priority 2016, published 2019)
